# Values quoted from earlier work as cited in patent publication US20080253966A1, “Diagnostic, Prognostic, and Therapeutic Factor Smac/Diablo in Human Cancer” (The Regents of The University of California, priority 2004, published 2008).
# System: cell lines treated with paclitaxel, etoposide, camptothecin, and doxorubicine
substance,measurement,value
"first four amino acids of Smac/DIABLO: the first four amino acids of Smac/DIABLO (Arnt et al., J. Biol. Chem. 2002) (AVPI; UniProt Q9NR28 56-59, looked up, fragment)",effect on apoptosis,increased apoptosis
